Reference: patent publication US20250041356A1, “COMBINATION CANCER THERAPY” (Prokarium Limited, priority 2021, published 2025)

Tests used:
[1] = system: 4T1-Luc2-1A4 tumour cells; conditions: monitored over 52 days; log-rank (Mantel-Cox) test
Method: Dilutions of the attenuated Salmonella Typhimurium strain (MD58) were made in PBS as required to achieve 1×10^9 CFU/100 μl for oral gavage.
6-7-week-old female BALB/c mice were pre-treated orally with 1×10^9 CFU Salmonella MD58 or PBS control. On day 0 mice were inoculated in mammary fat pad #4 with 5×10^5 4T1-Luc2-1A4 tumour cells. […] Primary tumour volumes were measured 3 times per week, lung tumour burden was measured by bioluminescent imaging (BLI) and survival was monitored until 52 days after tumour inoculation

Primary human monocytes = test: In vitro conditioning of primary human monocytes, TNFα release after PAMP/DAMP challenge (ELISA); assay type: cell-based
Method: Primary human monocytes were conditioned in vitro with Salmonella for 30 minutes prior to being washed with an antibiotic to remove all Salmonella and subsequently rested for 6 days in the presence of M-CSF. Following the 6 day rest period, the human monocytes were stimulated with PAMPs, DAMPs or a media only control, and the level of TNFα release measured via ELISA.

Compound	survival compared to PBS+saline control [1]	level of release of TNFα compared to cells treated with media (negative control) (Primary human monocytes; challenge other than PAMPs (DAMPs))	responsiveness to PAMPs and DAMPs, level of release of TNFα (Primary human monocytes; conditioned 30 minutes, rested 6 days with M-CSF, then challenged)
O=P1(N(CCCl)CCCl)NCCCO1 (stereo not drawn) [PBS+cyclophosphamide, cyclophosphamide]	significantly better survival		
β-glucan		no difference	only induces hyperresponsiveness in response to challenge with PAMPs
